Measured values taken from article PMC7339578, “Multiple circulating alkaloids and saponins from intravenous Kang-Ai injection inhibit human cytochrome P450 and UDP-glucuronosyltransferase isozymes: potential drug–drug interactions” (Chinese Medicine, 2020).
pIC50: −log10 of the molar value. Like-named read-outs stand apart in the source and are kept apart here.

Assays:
Format in all cases: in vitro ADME
[1] = target: T1, UGT1A1 (Homo sapiens, UniProt P22309); assay: Inhibition of expressed UGT1A1 (probe β-estradiol); conditions: for IC50: mean ± SD of triplicate, unit not given (IC50 classes in μM)
T1 sequence (P22309 26-533): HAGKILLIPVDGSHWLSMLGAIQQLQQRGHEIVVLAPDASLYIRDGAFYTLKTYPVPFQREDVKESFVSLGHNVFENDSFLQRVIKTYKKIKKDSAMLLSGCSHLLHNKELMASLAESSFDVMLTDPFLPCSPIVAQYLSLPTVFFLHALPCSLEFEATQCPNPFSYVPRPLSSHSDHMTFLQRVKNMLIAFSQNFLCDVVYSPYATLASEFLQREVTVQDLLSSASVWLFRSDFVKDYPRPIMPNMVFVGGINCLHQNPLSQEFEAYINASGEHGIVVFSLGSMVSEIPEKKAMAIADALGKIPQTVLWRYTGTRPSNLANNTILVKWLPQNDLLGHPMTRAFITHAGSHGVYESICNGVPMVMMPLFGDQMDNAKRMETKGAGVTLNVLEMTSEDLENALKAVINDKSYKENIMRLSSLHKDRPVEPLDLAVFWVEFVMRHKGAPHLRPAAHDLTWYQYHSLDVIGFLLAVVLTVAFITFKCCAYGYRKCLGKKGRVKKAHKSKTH
Protocol: After centrifugation (13,800g, 10 min), the supernatant (8 μL) was obtained for determination by UHPLC system.
Similarly, β-estradiol (60 μM), propofol (40 μM) and 4-MU (350 μM) were typically used as the substrates for UGT1A1, 1A9 and 2B7, respectively. After optimization of incubation conditions (Additional file 1: Fig. S2), the protein concentrations for UGT1A1, 1A9, and 2B7 were 0.125, 0.05, and 0.05 mg/mL, respectively.

[2] = target: T2, CYP2B6 (Homo sapiens, UniProt P20813); assay: Inhibition of recombinant CYP2B6 (probe bupropion); conditions: for IC50: mean ± SD of triplicate, unit not given (IC50 classes in μM)
T2 sequence (P20813 1-491): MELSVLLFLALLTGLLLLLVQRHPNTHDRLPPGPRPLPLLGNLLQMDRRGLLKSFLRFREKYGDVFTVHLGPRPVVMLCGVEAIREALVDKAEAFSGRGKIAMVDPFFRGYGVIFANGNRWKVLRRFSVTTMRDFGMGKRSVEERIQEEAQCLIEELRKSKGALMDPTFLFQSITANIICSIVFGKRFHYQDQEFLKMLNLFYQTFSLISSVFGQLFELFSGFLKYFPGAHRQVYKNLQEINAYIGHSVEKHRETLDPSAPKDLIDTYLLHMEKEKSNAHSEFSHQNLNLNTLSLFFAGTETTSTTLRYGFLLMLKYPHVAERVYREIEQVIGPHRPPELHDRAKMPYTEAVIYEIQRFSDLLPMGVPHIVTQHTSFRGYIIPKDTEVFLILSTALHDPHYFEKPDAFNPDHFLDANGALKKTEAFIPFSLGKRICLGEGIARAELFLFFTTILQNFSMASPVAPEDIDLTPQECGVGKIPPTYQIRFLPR
Protocol: (§1) In this study, phenacetin (100 μM), coumarin (100 μM), bupropion (100 μM), paclitaxel (60 μM), tolbutamide (200 μM), mephenytoin (100 μM), chlorzoxazone (200 μM) and nifedipine (40 μM) have been used as the probe substrates for CYP1A2, 2A6, 2B6, 2C8, 2C9, 2C19, 2E1 and 3A4, respectively.

[3] = target: CYP2C19 (Homo sapiens, UniProt P33261); assay: Inhibition of recombinant CYP2C19 (probe mephenytoin)
CYP2C19, sequence (P33261 whole entry): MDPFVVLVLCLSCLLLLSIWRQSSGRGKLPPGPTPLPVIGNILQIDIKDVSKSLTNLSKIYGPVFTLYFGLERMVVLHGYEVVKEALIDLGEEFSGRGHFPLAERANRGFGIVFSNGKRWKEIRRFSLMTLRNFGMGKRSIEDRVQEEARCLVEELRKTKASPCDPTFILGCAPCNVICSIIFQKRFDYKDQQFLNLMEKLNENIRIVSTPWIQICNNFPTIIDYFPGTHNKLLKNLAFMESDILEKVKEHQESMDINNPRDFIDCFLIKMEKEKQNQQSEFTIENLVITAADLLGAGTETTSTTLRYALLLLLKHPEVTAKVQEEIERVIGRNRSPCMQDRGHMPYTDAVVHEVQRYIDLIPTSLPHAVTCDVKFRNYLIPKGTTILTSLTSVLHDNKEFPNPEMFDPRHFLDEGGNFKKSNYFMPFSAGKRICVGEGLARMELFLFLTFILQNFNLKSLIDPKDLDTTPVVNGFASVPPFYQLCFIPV
Protocol: as §1

[4] = target: CYP2C9 (Homo sapiens, UniProt P11712); assay: Inhibition of recombinant CYP2C9 (probe tolbutamide); conditions: for IC50: mean ± SD of triplicate, unit not given (IC50 classes in μM)
CYP2C9, sequence (P11712 whole entry): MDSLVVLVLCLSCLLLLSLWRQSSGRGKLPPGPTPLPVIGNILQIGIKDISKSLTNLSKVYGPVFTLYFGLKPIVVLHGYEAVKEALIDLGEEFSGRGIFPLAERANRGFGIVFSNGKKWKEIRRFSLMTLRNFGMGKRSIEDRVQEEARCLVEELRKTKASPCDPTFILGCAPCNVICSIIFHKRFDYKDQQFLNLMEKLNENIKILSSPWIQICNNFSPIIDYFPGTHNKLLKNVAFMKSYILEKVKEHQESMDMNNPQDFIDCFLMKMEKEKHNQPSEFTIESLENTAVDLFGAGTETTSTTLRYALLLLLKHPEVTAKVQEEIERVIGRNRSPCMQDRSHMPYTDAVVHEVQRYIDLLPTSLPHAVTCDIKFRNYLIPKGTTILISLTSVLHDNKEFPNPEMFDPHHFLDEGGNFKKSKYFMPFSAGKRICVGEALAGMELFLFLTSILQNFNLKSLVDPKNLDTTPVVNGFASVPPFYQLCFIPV
Protocol: as §1

[5] = Stability tests of analytes in rat plasma QC samples
Protocol: […] The dilution integrity was investigated by analyzing six replicate samples with each analyte, and each analyte were diluted 10-fold with blank rat matrix. Furthermore, the diluted samples were analyzed using freshly prepared calibration curve to calculate RE and RSD, which should be no more than ± 15% as criterion.

[6] = target: T3, CYP1A2 (Homo sapiens, UniProt P05177); assay: Inhibition of recombinant CYP1A2 (probe phenacetin)
T3 construct: purchased Corning Biosciences 456203
T3 sequence (P05177 1-516): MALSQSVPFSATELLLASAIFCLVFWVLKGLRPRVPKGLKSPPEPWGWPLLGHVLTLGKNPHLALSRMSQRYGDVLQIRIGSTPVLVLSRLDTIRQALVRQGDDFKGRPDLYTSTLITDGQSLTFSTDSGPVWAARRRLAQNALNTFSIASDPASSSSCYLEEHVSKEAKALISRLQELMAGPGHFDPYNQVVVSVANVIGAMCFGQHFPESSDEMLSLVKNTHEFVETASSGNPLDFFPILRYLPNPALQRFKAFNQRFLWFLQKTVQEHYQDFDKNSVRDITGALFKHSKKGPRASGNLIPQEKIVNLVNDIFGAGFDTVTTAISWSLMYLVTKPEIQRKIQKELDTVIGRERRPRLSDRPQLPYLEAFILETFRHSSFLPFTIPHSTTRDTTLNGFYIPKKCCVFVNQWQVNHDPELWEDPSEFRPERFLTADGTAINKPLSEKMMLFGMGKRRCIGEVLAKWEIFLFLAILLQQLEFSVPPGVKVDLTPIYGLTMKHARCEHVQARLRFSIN
Protocol: as §1

[7] = target: CYP3A4 (Homo sapiens, UniProt P08684); assay: Inhibition of recombinant CYP3A4 (probe nifedipine); conditions: for IC50: mean ± SD of triplicate, unit not given (IC50 classes in μM)
CYP3A4, sequence (P08684 whole entry): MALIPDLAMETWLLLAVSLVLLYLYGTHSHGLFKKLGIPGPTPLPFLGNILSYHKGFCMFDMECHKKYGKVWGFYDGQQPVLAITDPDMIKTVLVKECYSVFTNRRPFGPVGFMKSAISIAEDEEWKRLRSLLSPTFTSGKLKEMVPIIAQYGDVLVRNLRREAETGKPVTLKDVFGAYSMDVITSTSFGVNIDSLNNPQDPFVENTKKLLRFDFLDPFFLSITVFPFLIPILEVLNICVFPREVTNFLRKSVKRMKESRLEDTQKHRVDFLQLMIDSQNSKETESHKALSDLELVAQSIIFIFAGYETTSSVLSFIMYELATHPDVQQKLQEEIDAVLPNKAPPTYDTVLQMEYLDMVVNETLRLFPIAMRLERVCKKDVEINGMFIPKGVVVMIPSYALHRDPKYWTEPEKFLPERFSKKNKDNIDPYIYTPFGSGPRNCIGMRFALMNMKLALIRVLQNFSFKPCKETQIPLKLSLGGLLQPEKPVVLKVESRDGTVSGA
Protocol: as §1

[8] = rat plasma, nominal conc. 20 nM
[9] = rat plasma, nominal conc. 100 nM
[10] = rat plasma, nominal conc. 400 nM

Structure (SMILES)	At -80 °C for 48 h, Mean±SD [5, 8] [nM]	At -80 °C for 48 h, RE [5, 8] [%]	Extracted samples at 8 °C for 18 h, Mean±SD [5, 8] [nM]	Extracted samples at 8 °C for 18 h, RE [5, 8] [%]	Short-term stability at room temperature for 6 h, Mean±SD [5, 8] [nM]	Short-term stability at room temperature for 6 h, RE [5, 8] [%]	Three freeze-thaw cycles (-80 °C ↔ 23 °C), Mean±SD [5, 8] [nM]	Three freeze-thaw cycles (-80 °C ↔ 23 °C), RE [5, 8] [%]	At -80 °C for 48 h, Mean±SD [5, 9] [nM]	At -80 °C for 48 h, RE [5, 9] [%]	Extracted samples at 8 °C for 18 h, Mean±SD [5, 9] [nM]	Extracted samples at 8 °C for 18 h, RE [5, 9] [%]	Short-term stability at room temperature for 6 h, Mean±SD [5, 9] [nM]	Short-term stability at room temperature for 6 h, RE [5, 9] [%]	Three freeze-thaw cycles (-80 °C ↔ 23 °C), Mean±SD [5, 9] [nM]	Three freeze-thaw cycles (-80 °C ↔ 23 °C), RE [5, 9] [%]	At -80 °C for 48 h, Mean±SD [5, 10] [nM]	At -80 °C for 48 h, RE [5, 10] [%]	Extracted samples at 8 °C for 18 h, Mean±SD [5, 10] [nM]	Extracted samples at 8 °C for 18 h, RE [5, 10] [%]	also measured
CC(C)=CCC[C@](C)(O)[C@H]1CC[C@]2(C)[C@@H]1[C@H](O)C[C@@H]1[C@@]3(C)CC[C@H](O)C(C)(C)[C@@H]3[C@@H](O[C@@H]3O[C@H](CO)[C@@H](O)[C@H](O)[C@H]3O[C@@H]3O[C@H](CO)[C@@H](O)[C@H](O)[C@H]3O)C[C@]12C [Compound C7, Ginsenoside Rf]	21.60 ± 0.37	9.41	19.73 ± 2.64	13.56	20.44 ± 2.11	11.15	22.07 ± 0.56	13.46	100.58 ± 11.11	13.37	93.83 ± 2.15	-8.56	96.37 ± 9.64	-10.30	101.34 ± 13.26	-13.01	428.42 ± 28.06	14.40	392.21 ± 39.26	-12.43	IC50 ([1]; recombinant isozyme, read-out: IC50 towards UGT1A1): > 100 µM; IC50 ([2]; recombinant isozyme, read-out: IC50 towards CYP2B6): > 100 µM; IC50 ([3]; recombinant isozyme, mean ± SD of triplicate, unit not given (IC50 classes in μM), read-out: IC50 towards CYP2C19): > 100 µM; IC50 ([4]; recombinant isozyme, read-out: IC50 towards CYP2C9): > 100 µM; Short-term stability at room temperature for 6 h, Mean±SD [5, 10]: 357.16 ± 4.75 nM; Short-term stability at room temperature for 6 h, RE [5, 10]: -11.69%; Three freeze-thaw cycles (-80 °C ↔ 23 °C), Mean±SD [5, 10]: 398.07 ± 39.06 nM; Three freeze-thaw cycles (-80 °C ↔ 23 °C), RE [5, 10]: -10.52%; IC50 ([6]; recombinant isozyme, mean ± SD of triplicate, unit not given (IC50 classes in μM), read-out: IC50 towards CYP1A2): > 100 µM; IC50 ([7]; recombinant isozyme, read-out: IC50 towards CYP3A4): > 100 µM
O=C1CCC[C@@H]2[C@H]3CCC[N+]4([O-])CCC[C@@H](CN12)[C@@H]34 (stereo partly drawn) [Compound A3, Oxymatrine]																					IC50 ([1]; IC50 towards UGT1A1, recombinant isozyme): > 100 µM; IC50 ([2]; IC50 towards CYP2B6, recombinant isozyme): > 100 µM; pIC50 [3]: < 4.00; IC50 ([4]; IC50 towards CYP2C9, recombinant isozyme): > 100 µM; Three freeze-thaw cycles (-80 °C ↔ 23 °C), Mean±SD ([5]; rat, 80 nM): 82.92 ± 3.13 nM; Three freeze-thaw cycles (-80 °C ↔ 23 °C), Mean±SD ([5]; rat, 400 nM): 406.54 ± 20.44 nM; Three freeze-thaw cycles (-80 °C ↔ 23 °C), Mean±SD ([5]; rat, 1600 nM): 1588.35 ± 117.83 nM; Short-term stability at room temperature for 6 h, Mean±SD ([5]; rat, 6 h, 80 nM): 81.69 ± 3.23 nM; Short-term stability at room temperature for 6 h, Mean±SD ([5]; rat, 6 h, 400 nM): 391.75 ± 44.05 nM; Short-term stability at room temperature for 6 h, Mean±SD ([5]; rat, 6 h, 1600 nM): 1629.42 ± 112.91 nM; Extracted samples at 8 °C for 18 h, Mean±SD ([5]; rat, 18 h, 80 nM): 76.52 ± 2.34 nM; Extracted samples at 8 °C for 18 h, Mean±SD ([5]; rat, 18 h, 400 nM): 410.83 ± 21.99 nM; Extracted samples at 8 °C for 18 h, Mean±SD ([5]; rat, 18 h, 1600 nM): 1553.29 ± 127.31 nM; At -80 °C for 48 h, Mean±SD ([5]; rat, 48 h, 80 nM): 83.89 ± 6.74 nM; At -80 °C for 48 h, Mean±SD ([5]; rat, 48 h, 400 nM): 422.79 ± 10.74 nM; At -80 °C for 48 h, Mean±SD ([5]; rat, 48 h, 1600 nM): 1578.58 ± 168.35 nM; pIC50 [6]: < 4.00; IC50 ([7]; IC50 towards CYP3A4, recombinant isozyme): > 100 µM
O=C1CCC[C@@H]2[C@H]3CCCN4CCC[C@@H](CN12)[C@@H]34 [Compound A1, Matrine]	21.33 ± 1.64	10.69	21.75 ± 0.99	13.23	20.84 ± 0.75	8.05	20.11 ± 1.97	-9.75	106.76 ± 6.22	13.15	95.18 ± 2.64	-7.17	100.30 ± 2.84	3.05	104.44 ± 12.01	14.16	394.46 ± 17.47	-6.06	402.13 ± 26.43	7.87	pIC50 [1]: < 4.00; pIC50 [2]: < 4.00; pIC50 [3]: < 4.00; pIC50 [4]: < 4.00; Short-term stability at room temperature for 6 h, Mean±SD [5, 10]: 420.24 ± 21.99 nM; Short-term stability at room temperature for 6 h, RE [5, 10]: 11.33%; Three freeze-thaw cycles (-80 °C ↔ 23 °C), Mean±SD [5, 10]: 415.19 ± 9.89 nM; Three freeze-thaw cycles (-80 °C ↔ 23 °C), RE [5, 10]: 5.94%; pIC50 [6]: < 4.00; pIC50 [7]: < 4.00
